This passage reports IC50 and Ki results from ChEMBL document CHEMBL1131412, “N-[2-[4-(4-Chlorophenyl)piperazin-1-yl]ethyl]-3-methoxybenzamide: a potent and selective dopamine D4 ligand” (J Med Chem, 1998).

The target in one assay is T1, 5-hydroxytryptamine receptor 1A (Rattus norvegicus, UniProt P19327).
T1 sequence (P19327 whole entry): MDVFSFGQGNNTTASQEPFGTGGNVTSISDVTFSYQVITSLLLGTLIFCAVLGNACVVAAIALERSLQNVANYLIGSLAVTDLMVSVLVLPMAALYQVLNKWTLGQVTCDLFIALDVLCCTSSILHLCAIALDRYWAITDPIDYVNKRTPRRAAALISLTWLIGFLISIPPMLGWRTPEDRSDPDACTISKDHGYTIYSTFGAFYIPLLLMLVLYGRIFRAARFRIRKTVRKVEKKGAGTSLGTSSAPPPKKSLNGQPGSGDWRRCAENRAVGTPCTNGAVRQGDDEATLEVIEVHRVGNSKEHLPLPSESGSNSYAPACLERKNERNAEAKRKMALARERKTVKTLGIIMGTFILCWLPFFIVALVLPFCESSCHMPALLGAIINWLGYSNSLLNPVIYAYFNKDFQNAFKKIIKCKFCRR
Nature of the assay: Binding affinity was measured at the serotonin 5-hydroxytryptamine 1A receptor using [3H]8-OH-DPAT as radioligand in rat hippocampal membrane. The assay is classed as cell membranes, Hippocampus.
In the case of `COc1cccc(C(=O)NCCN2CCN(c3ccc(Cl)cc3)CC2)c1`, the half-inhibitory concentration (IC50) – broadly, the point on the concentration scale where inhibition reaches its midpoint – is 220 nM. In other words, the sub-micromolar range.

In a further assay the target is T2, Adrenergic receptor alpha-1 (Rattus norvegicus, UniProt P15823+P23944+P43140).
T2 sequence (P15823 whole entry): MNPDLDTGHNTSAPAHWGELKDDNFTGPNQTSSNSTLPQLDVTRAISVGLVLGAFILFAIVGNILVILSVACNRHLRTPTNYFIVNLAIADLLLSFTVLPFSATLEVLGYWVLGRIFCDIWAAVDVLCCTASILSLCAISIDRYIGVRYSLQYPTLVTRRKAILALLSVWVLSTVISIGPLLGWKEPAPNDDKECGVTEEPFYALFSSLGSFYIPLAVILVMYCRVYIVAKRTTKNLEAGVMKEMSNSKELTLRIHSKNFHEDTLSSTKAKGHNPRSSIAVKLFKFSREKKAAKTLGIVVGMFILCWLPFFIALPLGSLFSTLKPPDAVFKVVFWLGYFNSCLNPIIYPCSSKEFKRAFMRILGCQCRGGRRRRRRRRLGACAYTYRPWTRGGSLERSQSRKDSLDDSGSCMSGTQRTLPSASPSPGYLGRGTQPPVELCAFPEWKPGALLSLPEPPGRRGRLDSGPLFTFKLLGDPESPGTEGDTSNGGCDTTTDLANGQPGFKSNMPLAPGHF
T2 sequence (P23944 whole entry): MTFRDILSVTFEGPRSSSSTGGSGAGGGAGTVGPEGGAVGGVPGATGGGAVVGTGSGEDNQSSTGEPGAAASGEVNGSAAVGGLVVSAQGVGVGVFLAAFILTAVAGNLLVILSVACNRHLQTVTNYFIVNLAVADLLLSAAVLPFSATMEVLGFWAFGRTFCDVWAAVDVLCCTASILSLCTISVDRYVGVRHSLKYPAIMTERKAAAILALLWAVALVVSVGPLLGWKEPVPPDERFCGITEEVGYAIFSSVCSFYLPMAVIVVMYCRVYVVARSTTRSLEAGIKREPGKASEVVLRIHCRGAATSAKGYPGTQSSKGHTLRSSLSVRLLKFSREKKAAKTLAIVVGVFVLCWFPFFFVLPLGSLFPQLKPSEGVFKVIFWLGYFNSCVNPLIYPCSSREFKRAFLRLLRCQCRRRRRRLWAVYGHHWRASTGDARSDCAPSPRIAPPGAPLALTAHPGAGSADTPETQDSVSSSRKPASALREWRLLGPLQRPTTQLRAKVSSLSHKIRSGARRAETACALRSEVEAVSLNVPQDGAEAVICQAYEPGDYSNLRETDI
T2 sequence (P43140 whole entry): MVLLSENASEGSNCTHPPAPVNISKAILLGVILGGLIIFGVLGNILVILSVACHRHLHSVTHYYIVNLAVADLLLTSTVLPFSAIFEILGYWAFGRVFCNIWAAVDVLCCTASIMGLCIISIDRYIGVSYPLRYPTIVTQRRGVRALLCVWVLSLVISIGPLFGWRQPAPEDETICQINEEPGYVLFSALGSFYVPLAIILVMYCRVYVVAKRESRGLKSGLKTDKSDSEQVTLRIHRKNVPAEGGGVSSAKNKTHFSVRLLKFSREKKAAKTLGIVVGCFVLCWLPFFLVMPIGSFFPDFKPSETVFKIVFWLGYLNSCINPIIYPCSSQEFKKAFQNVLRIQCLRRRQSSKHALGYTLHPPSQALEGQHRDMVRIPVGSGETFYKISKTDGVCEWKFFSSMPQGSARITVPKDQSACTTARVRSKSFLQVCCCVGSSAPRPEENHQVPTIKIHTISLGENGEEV
Nature of the assay: Binding affinity was measured at the Alpha-1 adrenergic receptor using [3H]prazosin as radioligand in rat brain cortex membrane. The class given is cell membranes.
`COc1cccc(C(=O)NCCN2CCN(c3ccc(Cl)cc3)CC2)c1` displayed a half-maximal inhibitory concentration (IC50) of 270 nM.

The next assay deals with T3, D(4) dopamine receptor (Homo sapiens, UniProt P21917).
T3 sequence (P21917 whole entry): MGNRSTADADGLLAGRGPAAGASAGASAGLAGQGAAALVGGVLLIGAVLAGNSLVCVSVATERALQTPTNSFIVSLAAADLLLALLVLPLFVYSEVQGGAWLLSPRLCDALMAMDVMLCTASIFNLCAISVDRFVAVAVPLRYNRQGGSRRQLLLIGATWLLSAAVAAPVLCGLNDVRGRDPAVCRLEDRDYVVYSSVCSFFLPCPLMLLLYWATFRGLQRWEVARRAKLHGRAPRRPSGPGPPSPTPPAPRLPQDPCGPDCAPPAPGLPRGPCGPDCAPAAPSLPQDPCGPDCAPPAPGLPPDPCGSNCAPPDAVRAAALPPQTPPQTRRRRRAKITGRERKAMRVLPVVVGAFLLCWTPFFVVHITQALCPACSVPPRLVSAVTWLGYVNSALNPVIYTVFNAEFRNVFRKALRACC
Nature of the assay: In vitro binding affinity was measured at the cloned human Dopamine receptor D4.2 using [3H]YM-09151-2 as radioligand.
For the compound `COc1ccccc1N1CCN(CCNC2=Nc3ccccc3OC2)CC1`, affinity was put at a Ki of 3 nM. Take `COc1ccccc1N1CCN(Cc2ccn(-c3ccccc3)c2)CC1`: the inhibitory constant (Ki) (commonly a dissociation constant, usually derived from enzyme kinetics or from competition with a known ligand) is 0.7 nM.

In a further assay the target is T3, D(4) dopamine receptor. Put plainly: In vitro binding affinity at human cloned Dopamine receptor D4.2 by [3H]YM-09151-2 displacement.
`COc1ccc(OC)c(C(=O)NCCN2CCN(c3ccccc3OC)CC2)c1` came in with a half-maximal inhibitory concentration (IC50) of 7.8 nM.

Turning to `COc1cccc(C(=O)NCCN2CCN(Cc3ccccc3OC)CC2)c1`, the IC50 stood at 30 nM. Compound `COc1cccc(-c2csc(CN3CCN(c4ccccc4OC)CC3)n2)c1` registered an IC50 of 740 nM.

The compound `COc1cccc(C(=O)NCCN2CCN(Cc3ccc(Cl)cc3)CC2)c1` returned an IC50 of 70 nM. In the case of `COc1ccc2c(c1)CC(NC(=O)CN1CCN(c3ccccc3OC)CC1)CC2` (stereo not given), the IC50 turned out to be 470 nM. In the case of `COc1ccccc1N1CCN(CC(=O)NC2CCc3c(cccc3OC)C2)CC1` (stereo not given), the IC50 was 850 nM. This IC50 lies about 1.8-fold higher than the previous one. Still for that read-out and setting: the value for `COc1cccc(C(=O)CCCN2CCN(c3ccccc3OC)CC2)c1` was 3.1 nM. The same measure, in the same setting: the same measure for `COc1ccccc1C(=O)NCCN1CCN(c2ccccc2OC)CC1`: 4 nM; for `COc1ccccc1N1CCN(CCC(=O)NC2CCc3c(cccc3OC)C2)CC1` (stereo not given): 120 nM. Regarding `COc1ccc2c(c1)C(CCCN1CCN(c3ccccc3OC)CC1)CCC2` (stereo not given), the concentration for half-maximal inhibition (IC50) is 280 nM.

As for `COc1cccc(C(=O)NCCN2CCN(c3ccc(Cl)cc3)CC2)c1`, the half-inhibitory concentration (IC50) came out at 0.057 nM.
